# Reference: US20250250230A1, “HETEROCYCLIC COMPOUND” (TAKEDA PHARMACEUTICAL COMPANY LIMITED, priority 2022, published 2025)
# Target: T1, human orexin type 2 receptor (Homo sapiens, UniProt O43614)
# T1 construct: expressed in transfected cells
# T1 sequence (O43614 1-444): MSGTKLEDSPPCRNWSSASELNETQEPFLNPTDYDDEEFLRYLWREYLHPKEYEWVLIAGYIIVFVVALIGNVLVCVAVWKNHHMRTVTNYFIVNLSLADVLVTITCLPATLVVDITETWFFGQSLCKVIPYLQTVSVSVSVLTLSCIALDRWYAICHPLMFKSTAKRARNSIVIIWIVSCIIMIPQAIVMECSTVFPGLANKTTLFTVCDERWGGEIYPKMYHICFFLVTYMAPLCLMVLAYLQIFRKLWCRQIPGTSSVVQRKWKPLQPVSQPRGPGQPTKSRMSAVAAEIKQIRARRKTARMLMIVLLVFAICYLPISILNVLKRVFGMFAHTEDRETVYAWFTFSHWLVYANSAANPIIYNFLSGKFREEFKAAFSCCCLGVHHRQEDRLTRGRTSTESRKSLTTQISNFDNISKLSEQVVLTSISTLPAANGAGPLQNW
# Test: Measurement of orexin type 2 receptor agonist activity (calcium fluorescence, Fluo-4 AM, FDSS)
# Format: cell-based
# Settings: test compound 3 μM; CHO cells expressing human OX2 receptor; DMSO = 0%, orexin A (human) = 100%
# Method in brief: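 CHO-K1 cells stably expressing human OX2R were loaded with Fluo-4 AM (30 min 37 °C, 30 min RT) in HEPES-buffered HBSS with 0.1% BSA and probenecid. Calcium fluorescence was followed on FDSS for 2 min after compound addition; activity normalised to DMSO (0%) and 10 nM orexin A (100%).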
row,"OX2R agonist activity (3 μM, %)",Compound
1,87%,"CS(=O)(=O)NC1CN(C(=O)C2CC2c2ccccc2-c2c(F)cccc2F)CC1(F)F (racemic) [Example 130, a mixture of rac-N-{(3R)-1-[(1R,2R)-2-(2′,6′-difluoro[1,1′-biphenyl]-2-yl)cyclopropane-1-carbonyl]-4,4-difluoropyrrolidin-3-yl}methanesulfonamide and rac-N-{(3S)-1-[(1R,2R)-2-(2′,6′-difluoro[1,1′-biphenyl]-2-yl)cyclopropane-1-carbonyl]-4,4-difluoropyrrolidin-3-yl}methanesulfonamide]"
2,101%,"COCC1(C(=O)N2CC[C@H]2CNS(C)(=O)=O)CC1c1ccc(F)cc1-c1c(F)cccc1F (stereo partly drawn) [Example 435, N-({(2S)-1-[(1R,2S)-1-(methoxymethyl)-2-(2′,5,6′-trifluoro[1,1′-biphenyl]-2-yl)cyclopropane-1-carbonyl]azetidin-2-yl}methyl)methanesulfonamide, or N-({(2S)-1-[(1S,2R)-1-(methoxymethyl)-2-(2′,5,6′-trifluoro[1,1′-biphenyl]-2-yl)cyclopropane-1-carbonyl]azetidin-2-yl}methyl)methanesulfonamide]"
3,96%,"CS(=O)(=O)NC[C@H]1[C@H](C(F)F)CN1C(=O)[C@@H]1C[C@@]1(F)c1ccccc1-c1c(F)cccc1F [Example 405, N-{[(2R,3R)-1-[(1S,2S)-2-(2′,6′-difluoro[1,1′-biphenyl]-2-yl)-2-fluorocyclopropane-1-carbonyl]-3-(difluoromethyl)azetidin-2-yl]methyl}methanesulfonamide]"
4,98%,"CCS(=O)(=O)NC[C@H]1[C@H](F)CN1C(=O)[C@@H]1C[C@@]1(F)c1ccccc1-c1c(F)cccc1F [Example 417, N-({(2S,3R)-1-[(1S,2S)-2-(2′,6′-difluoro[1,1′-biphenyl]-2-yl)-2-fluorocyclopropane-1-carbonyl]-3-fluoroazetidin-2-yl}methyl)ethanesulfonamide]"
5,97%,"CN(C)S(=O)(=O)N[C@H]1CCN(C(=O)[C@@H]2C[C@H]2c2c(F)cccc2-c2c(F)cccc2F)C1 [Example 309, N,N-dimethyl-N′-{(3S)-1-[(1R,2R)-2-(2′,3,6′-trifluoro[1,1′-biphenyl]-2-yl)cyclopropane-1-carbonyl]pyrrolidin-3-yl}sulfuric diamide]"
6,101%,"CS(=O)(=O)N[C@H]1CCCN(C(=O)C2CC2c2c(F)cccc2-c2c(F)cccc2F)C1 (stereo partly drawn) [Example 196, N-{(3S)-1-[(1R,2R)-2-(2′,3,6′-trifluoro[1,1′-biphenyl]-2-yl)cyclopropane-1-carbonyl]piperidin-3-yl}methanesulfonamide, or N-{(3S)-1-[(1S,2S)-2-(2′,3,6′-trifluoro[1,1′-biphenyl]-2-yl)cyclopropane-1-carbonyl]piperidin-3-yl}methanesulfonamide]"
7,103%,"CS(=O)(=O)N[C@@H]1CN(C(=O)[C@@H]2C[C@H]2c2ccccc2-c2c(F)cccc2F)C[C@@H]1F [Example 241, N-{(3R,4S)-1-[(1R,2R)-2-(2′,6′-difluoro[1,1′-biphenyl]-2-yl)cyclopropane-1-carbonyl]-4-fluoropyrrolidin-3-yl}methanesulfonamide]"
8,98%,"CS(=O)(=O)N[C@@H]1CN(C(=O)C2CC2c2ccccc2-c2c(F)cccc2F)CCC1(F)F (stereo partly drawn) [Example 215, N-{(3R)-1-[(1R,2R)-2-(2′,6′-difluoro [1,1′-biphenyl]-2-yl)cyclopropane-1-carbonyl]-4,4-difluoropiperidin-3-yl}methanesulfonamide, or N-{(3R)-1-[(1S,2S)-2-(2′,6′-difluoro[1,1′-biphenyl]-2-yl)cyclopropane-1-carbonyl]-4,4-difluoropiperidin-3-yl}methanesulfonamide]"
9,101%,"CS(=O)(=O)NC1CCCN(C(=O)C2CC2c2c(F)cccc2-c2c(F)cccc2F)C1 (racemic) [Example 31, a mixture of rac-N-{(3R)-1-[(1R,2R)-2-(2′,3,6′-trifluoro[1,1′-biphenyl]-2-yl)cyclopropane-1-carbonyl]piperidin-3-yl}methanesulfonamide and rac-N-{(3S)-1-[(1R,2R)-2-(2′,3,6′-trifluoro[1,1′-biphenyl]-2-yl)cyclopropane-1-carbonyl]piperidin-3-yl}methanesulfonamide]"
10,76%,"O=C([C@@H]1C[C@@]1(F)c1ccc(F)cc1-c1c(F)cccc1F)N1C[C@@H](F)[C@H]1CNS(=O)(=O)CC1CC1 [Example 445, 1-cyclopropyl-N-({(2R,3R)-3-fluoro-1-[(1S,2S)-2-fluoro-2-(2′,5,6′-trifluoro[1,1′-biphenyl]-2-yl)cyclopropane-1-carbonyl]azetidin-2-yl}methyl)methanesulfonamide]"

# More lines, now with the values behind:
row,Compound,"OX2R agonist activity (3 μM, %)"
1,"CS(=O)(=O)NC1CCN(C(=O)C2CC2c2ccc(F)cc2-c2ccccc2Cl)C1 (racemic) [Example 134, a mixture of rac-N-{(3R)-1-[(1R,2R)-2-(2′-chloro-5-fluoro[1,1′-biphenyl]-2-yl)cyclopropane-1-carbonyl]pyrrolidin-3-yl}methanesulfonamide and rac-N-{(3S)-1-[(1R,2R)-2-(2′-chloro-5-fluoro[1,1′-biphenyl]-2-yl)cyclopropane-1-carbonyl]pyrrolidin-3-yl}methanesulfonamide]",74%
2,"CS(=O)(=O)NC1CCCN(C(=O)C2CC2c2sccc2-c2c(F)cccc2F)C1 (racemic) [Example 223, a mixture of rac-N-[(3R)-1-{(1R,2R)-2-[3-(2,6-difluorophenyl)thiophen-2-yl]cyclopropane-1-carbonyl}piperidin-3-yl]methanesulfonamide and rac-N-[(3S)-1-{(1R,2R)-2-[3-(2,6-difluorophenyl)thiophen-2-yl]cyclopropane-1-carbonyl}piperidin-3-yl]methanesulfonamide]",81%
3,"CC1(NS(C)(=O)=O)CCCN(C(=O)[C@@H]2C[C@H]2c2ccccc2-c2c(F)cccc2F)CC1 (mixture of isomers) [Example 313, a mixture of N-{(4R)-1-[(1R,2R)-2-(2′,6′-difluoro[1,1′-biphenyl]-2-yl)cyclopropane-1-carbonyl]-4-methylazepan-4-yl}methanesulfonamide and N-{(4S)-1-[(1R,2R)-2-(2′,6′-difluoro[1,1′-biphenyl]-2-yl)cyclopropane-1-carbonyl]-4-methylazepan-4-yl}methanesulfonamide]",97%
4,"CS(=O)(=O)N[C@@H]1CN(C(=O)C2CC2c2c(-c3c(F)cccc3F)csc2F)CCC1(F)F (stereo partly drawn) [Example 378, N-[(3R)-1-{(1R,2R)-2-[4-(2,6-difluorophenyl)-2-fluorothiophen-3-yl]cyclopropane-1-carbonyl}-4,4-difluoropiperidin-3-yl]methanesulfonamide, or N-[(3R)-1-{(1S,2S)-2-[4-(2,6-difluorophenyl)-2-fluorothiophen-3-yl]cyclopropane-1-carbonyl}-4,4-difluoropiperidin-3-yl]methanesulfonamide]",103%
5,"CS(=O)(=O)NC1CCCN(C(=O)C2CC2c2ccccc2-c2cccc(F)c2F)CC1 (racemic) [Example 54, a mixture of rac-N-{(4R)-1-[(1R,2R)-2-(2′,3′-difluoro[1,1′-biphenyl]-2-yl)cyclopropane-1-carbonyl]azepan-4-yl}methanesulfonamide and rac-N-{(4S)-1-[(1R,2R)-2-(2′,3′-difluoro[1,1′-biphenyl]-2-yl)cyclopropane-1-carbonyl]azepan-4-yl}methanesulfonamide]",79%
6,"CCS(=O)(=O)NC1CCCCN(C(=O)C2CC2c2ccccc2-c2c(F)cccc2F)C1 (racemic) [Example 159, a mixture of rac-N-{(3R)-1-[(1R,2R)-2-(2′,6′-difluoro[1,1′-biphenyl]-2-yl)cyclopropane-1-carbonyl]azepan-3-yl}ethanesulfonamide and rac-N-{(3S)-1-[(1R,2R)-2-(2′,6′-difluoro[1,1′-biphenyl]-2-yl)cyclopropane-1-carbonyl]azepan-3-yl}ethanesulfonamide]",101%
7,"C[C@@H]1C[C@H](NS(C)(=O)=O)CN1C(=O)[C@@H]1C[C@H]1c1ccccc1-c1c(F)cccc1F [Example 263, N-{(3S,5R)-1-[(1R,2R)-2-(2′,6′-difluoro[1,1′-biphenyl]-2-yl)cyclopropane-1-carbonyl]-5-methylpyrrolidin-3-yl}methanesulfonamide]",98%
8,"CN(C)S(=O)(=O)N[C@H]1CCCN(C(=O)[C@@H]2C[C@H]2c2c(F)cccc2-c2c(F)cccc2F)C1 [Example 312, N,N-dimethyl-N′-{(3S)-1-[(1R,2R)-2-(2′,3,6′-trifluoro[1,1′-biphenyl]-2-yl)cyclopropane-1-carbonyl]piperidin-3-yl}sulfuric diamide]",100%
9,"N-({(2S,3R)-1-[(1R,2R)-2-fluoro-2-(2′- fluoro[1,1′-biphenyl]-2- yl)cyclopropane-1-carbonyl]-3- methylazetidin-2- yl}methyl)ethanesulfonamide, or N- ({(2S,3R)-1-[(1S,2S)-2-fluoro-2-(2′- fluoro[1,1′-biphenyl]-2- yl)cyclopropane-1-carbonyl]-3- methylazetidin-2- yl}methyl)ethanesulfonamide [Example 439]",107%
